Values quoted from earlier work in patent US20040147461A1, “Motilide compounds” (priority 2000, published 2004).

Assays:
[1] = statement in words
[2] = target: motilin receptor (Homo sapiens, UniProt O43193); details: statement in words
motilin receptor, sequence (O43193 whole entry, species assumed): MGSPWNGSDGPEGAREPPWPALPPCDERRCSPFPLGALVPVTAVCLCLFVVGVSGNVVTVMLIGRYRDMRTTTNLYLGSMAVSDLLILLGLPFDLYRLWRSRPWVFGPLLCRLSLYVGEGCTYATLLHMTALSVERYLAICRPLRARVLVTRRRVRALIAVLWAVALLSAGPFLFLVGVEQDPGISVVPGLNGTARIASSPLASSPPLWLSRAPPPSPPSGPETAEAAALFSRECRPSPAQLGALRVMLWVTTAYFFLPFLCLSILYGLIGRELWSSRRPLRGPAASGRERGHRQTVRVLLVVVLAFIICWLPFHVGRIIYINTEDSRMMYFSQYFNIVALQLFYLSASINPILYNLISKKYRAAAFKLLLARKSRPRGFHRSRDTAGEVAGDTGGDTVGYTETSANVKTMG

Compound: CC[C@H]1OC(=O)[C@H](C)[C@@H](O[C@H]2C[C@@](C)(OC)[C@@H](O)[C@H](C)O2)[C@H](C)[C@@H](O[C@@H]2O[C@H](C)C[C@H](N(C)C)[C@H]2O)[C@@]2(C)CC(C)=C(O2)[C@H](C)[C@@H](O)[C@]1(C)O [enol ether, 8,9-anhydroerythromycin A 6,9-hemiacetal]
- antimicrobial activity [1]: does not also posses antimicrobial activity

Compound: CC[C@H]1OC(=O)[C@H](C)[C@@H](O[C@H]2C[C@@](C)(OC)[C@@H](O)[C@H](C)O2)[C@H](C)[C@@H](O[C@@H]2O[C@H](C)C[C@H](N(C)C)[C@H]2O)[C@](C)(O)C[C@@H](C)C(=O)[C@H](C)[C@@H](O)[C@]1(C)O [erythromycin A]
- motilin agonist activity [2]: motilin agonists
